Where two headings read alike, the source gives them in different places.
What was measured:
[1] = tested on: SW480 colon carcinoma cells; details: SW480, MTT, 96 h exposure; cited from earlier work
[2] = tested on: CH1/PA-1 ovarian teratocarcinoma cells; details: CH1/PA-1, MTT, 96 h exposure; cited from earlier work
[3] = tested on: A549 non-small cell lung cancer cells; details: A549, MTT, 96 h exposure; cited from earlier work
[4] = tested on: SW480 colon carcinoma cells; assay: MTT assay (cytotoxicity); type: cell-based, human; details: 96 h exposure
Protocol: (§1) CH1/PA-1 ovarian teratocarcinoma cells (provided by L. R. Kelland, CRC Centre for Cancer Therapeutics, Institute of Cancer Research, Sutton, UK; confirmed by STR profiling as PA-1 ovarian teratocarcinoma cells at Multiplexion, Heidelberg, Germany), SW480 colon carcinoma and A549 non-small cell lung cancer cells (both obtained from the American Type Culture Collection, Manassas, VA, USA) were grown as adherent cultures in 75 cm² culture flasks (CytoOne, Starlab, Hamburg, Germany) by using minimal essential medium (MEM) supplemented with 1 mM sodium pyruvate, 4 mM L-glutamine, 1% (v/v) nonessential amino acids from 100-fold stock (all purchased from Sigma-Aldrich) and 10% heat-inactivated fetal bovine serum (BioWest, Nuaillé, France). Cells were maintained under standard culture conditions with 5% CO2 at 37 °C in a humidified atmosphere.
(§2) The 3-(4,5-dimethylthiazol-2-yl)-2,5-diphenyl-2H-tetrazolium bromide (MTT, Acros Organics, Geel, Belgium) assay was used to detect the cytotoxicity of the compounds after 24 h and 96 h incubation. In brief, cells were harvested from culture flasks and the following cell numbers (each in 100 µL) were seeded into 96-well culture plates (CytoOne, tissue culture treated, Starlab, Hamburg, Germany) for 24 h incubation: 1 × 10^4 (CH1/PA-1), 1 × 10^4 (SW480) and 1.5 × 10^4 (A549) cells per well; and for 96 h incubation: 1 × 10^3 (CH1/PA-1), 2 × 10^3 (SW480) and 3 × 10^3 (A549) cells per well. After 24 h, cells resuming their exponential growth rate were treated with test compounds at nine concentrations obtained by serial two-fold dilution. Stock solutions were prepared in DMSO (20 mM or 40 mM) and diluted in supplemented MEM. An amount of 100 µL of each concentration was added to the plates in triplicates and cells were exposed for 24 or 96 h. Afterward, the medium was replaced with 100 µL of MTT solution (5 mg/mL) in phosphate-buffered saline (PBS, Sigma-Aldrich), diluted 1:7 in RPMI 1640 medium (supplemented with 4 mM L-glutamine and 10% heat-inactivated FBS). Upon cell-viability-dependent conversion of the yellow, water-soluble tetrazolium salt into purple formazan products for 4 h, the crystals were dissolved in 150 µL DMSO. The absorbance of the resulting solutions, which is directly proportional to the number of viable cells, was measured at 550 nm (and at 690 nm as a reference) with a microplate reader (ELx808, BioTek, Winoosky, VT, USA) and Gen5TM 3.08 software (BioTek). Blank-corrected optical densities were subjected to graphical evaluation and interpolation of IC50 values. At least three biologically and technically independent experiments were performed.

[5] = tested on: CH1/PA-1 ovarian teratocarcinoma cells; assay: MTT assay (cytotoxicity); type: cell-based, human; details: CH1/PA-1, MTT, 96 h exposure
Protocol: as §1, §2

[6] = tested on: A549 non-small cell lung cancer cells; assay: MTT assay (cytotoxicity); type: cell-based, human; details: 96 h exposure
Protocol: as §1, §2

Structure (SMILES): N.N.O=C([O-])C1(C(=O)[O-])CCC1.[Pt+2] [Carboplatin]
- IC50 [1]: 42 ± 10 µM
- IC50 [2]: 0.79 ± 0.11 µM
- IC50 [3]: 38 ± 3 µM

Structure (SMILES): N.N.[Cl][Pt][Cl] [Cisplatin, reference compound]
- IC50 [4]: 2.3 ± 0.2 µM
- IC50 [5]: 0.073 ± 0.001 µM
- IC50 [6]: 3.8 ± 1 µM

Structure (SMILES): O=C1[O][Pt]2([NH][C@@H]3CCCC[C@H]3[NH]2)[O]C1=O [Oxaliplatin]
- IC50 [1]: 0.29 ± 0.05 µM
- IC50 [2]: 0.18 ± 0.01 µM
- IC50 [3]: 0.98 ± 0.21 µM

Structure (SMILES): [Cl][Ru][Cl].[Cl][Ru][Cl].c1ccccc1.c1ccccc1 [[Ru(benzene)Cl2]2]
- IC50 [1]: > 100 µM
- IC50 [2]: > 100 µM
- IC50 [3]: > 100 µM

Structure (SMILES): [Cl][Ru-]1[Cl+][Ru-]([Cl])[Cl+]1.c1ccc2c(c1)CCC2.c1ccc2c(c1)CCC2 [[Ru(indane)Cl2]2]
- IC50 [1]: 166 ± 35 µM
- IC50 [2]: 51 ± 13 µM
- IC50 [3]: 257 ± 66 µM

Structure (SMILES): Cc1ccccc1.Cc1ccccc1.[Cl][Ru-]1[Cl+][Ru-]([Cl])[Cl+]1 [[Ru(toluene)Cl2]2]
- IC50 [1]: > 100 µM
- IC50 [2]: > 100 µM
- IC50 [3]: > 100 µM

— PMC9699003, “Arene Variation of Highly Cytotoxic Tridentate Naphthoquinone-Based Ruthenium(II) Complexes and In-Depth In Vitro Studies” (Pharmaceutics, 2022)
